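Growth conditions: 96-well plates. Treatment: test compound, 48 hours, 5 concentrations. Analysis: linear interpolation between bracketing concentrations; unreached endpoints set to highest concentration. Here, GI50 denotes the concentration required for 50% inhibition of growth.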 The source made the active and inactive calls. Cut-off read from the data, not from the text of the source: active = GI50 up to about 1.1 µM and inactive = higher.
Experiments:
Test in all cases: NCI tumour cell line growth inhibition, 48 h
[1] = tested on: SF-539
[2] = tested on: SK-MEL-5
[3] = tested on: IGROV-1
[4] = tested on: ACHN
[5] = tested on: HL-60
[6] = tested on: A549
[7] = tested on: SNB-75
[8] = tested on: LXFL 529
[9] = tested on: OVCAR-8
[10] = tested on: HOP-92
[11] = tested on: 786-0
[12] = tested on: HCT-15
[13] = tested on: U-251
[14] = tested on: NCI-H522
[15] = tested on: SF-295
[16] = tested on: SN12C
[17] = tested on: SNB-19
[18] = tested on: HCC 2998
[19] = tested on: BT-549
[20] = tested on: A498

Structure (SMILES)	GI50 [1]	GI50 [2]	GI50 [3]	GI50 [4]	GI50 [5]	GI50 [6]	GI50 [7]	GI50 [8]	GI50 [9]	GI50 [10]	GI50 [11]	GI50 [12] [µM]	GI50 [13]	GI50 [14]	GI50 [15]	GI50 [16]	GI50 [17]	GI50 [18]	GI50 [19]	GI50 [20]
CC1CC2C(=O)NC(=O)C2c2[nH]c3ccccc3c21 (stereo not given)	> 100 µM (inactive)	70 µM (inactive)	> 100 µM (inactive)	> 100 µM (inactive)	40.6 µM (inactive)	> 100 µM (inactive)	1.53 µM (inactive)	> 100 µM (inactive)	> 100 µM (inactive)	34.4 µM (inactive)	> 100 µM (inactive)	> 100	> 100 µM (inactive)	51.4 µM (inactive)	> 100 µM (inactive)	78.7 µM (inactive)				
CSc1nc(Cl)c(Br)c(Sc2nc(N)nc3nc[nH]c23)n1	2.81 µM (inactive)	12.5 µM (inactive)	13.5 µM (inactive)	15.3 µM (inactive)	3.63 µM (inactive)	19.5 µM (inactive)	3.03 µM (inactive)	5.79 µM (inactive)	11 µM (inactive)	7.28 µM (inactive)	3.27 µM (inactive)	5.66	4.48 µM (inactive)	1.63 µM (inactive)	4.72 µM (inactive)		16.6 µM (inactive)	3.79 µM (inactive)		
Nc1cc(-c2ccc(Cl)cc2)nn1-c1nc2ccccc2nc1-c1ccccc1	95.9 µM (inactive)	92 µM (inactive)	38.3 µM (inactive)	70.6 µM (inactive)	> 100 µM (inactive)	> 100 µM (inactive)	27.6 µM (inactive)		> 100 µM (inactive)	56 µM (inactive)	39 µM (inactive)	> 100	48.1 µM (inactive)	> 100 µM (inactive)	> 100 µM (inactive)	80.7 µM (inactive)	47.8 µM (inactive)	> 100 µM (inactive)	> 100 µM (inactive)	> 100 µM (inactive)
O=[N+]([O-])c1ccc(NC(=S)Nc2ccccn2)cc1	8.63 µM (inactive)	43.3 µM (inactive)	11.9 µM (inactive)	34.1 µM (inactive)	14 µM (inactive)	19.1 µM (inactive)	18 µM (inactive)		31.5 µM (inactive)	72.4 µM (inactive)	16.8 µM (inactive)	18.8	24.3 µM (inactive)	31.8 µM (inactive)	27.4 µM (inactive)	37.2 µM (inactive)	57.3 µM (inactive)	> 100 µM (inactive)	> 92.3 µM (inactive)	12.8 µM (inactive)
Cc1nc2c(n1CCO)C(=O)c1ccccc1C2=O	29.9 µM (inactive)	11.3 µM (inactive)	20.3 µM (inactive)	25.1 µM (inactive)	19.9 µM (inactive)	29.4 µM (inactive)	82.2 µM (inactive)	36.6 µM (inactive)	30.3 µM (inactive)		46.9 µM (inactive)	31.5	26.5 µM (inactive)	14.5 µM (inactive)	48.4 µM (inactive)	31.4 µM (inactive)	43 µM (inactive)	41.4 µM (inactive)		
CCOC(=O)/C=C(/C(=O)OCC)n1cnc2c(=O)[nH]c(NC(C)=O)nc21	> 100 µM (inactive)	> 100 µM (inactive)	> 100 µM (inactive)	> 100 µM (inactive)	> 100 µM (inactive)	> 100 µM (inactive)	> 100 µM (inactive)		> 100 µM (inactive)	> 100 µM (inactive)	> 100 µM (inactive)	> 100	> 100 µM (inactive)	> 100 µM (inactive)	> 100 µM (inactive)	> 100 µM (inactive)	> 100 µM (inactive)	> 100 µM (inactive)	> 100 µM (inactive)	> 100 µM (inactive)
c1ccc(C2=NC3OC2c2ccccc23)cc1 (stereo not given)	> 10 µM (inactive)	> 10 µM (inactive)	> 10 µM (inactive)	> 10 µM (inactive)	> 10 µM (inactive)	> 10 µM (inactive)	> 10 µM (inactive)		> 10 µM (inactive)	> 10 µM (inactive)	> 10 µM (inactive)	> 10	> 10 µM (inactive)	> 10 µM (inactive)	> 10 µM (inactive)	> 10 µM (inactive)	> 10 µM (inactive)	> 10 µM (inactive)	> 10 µM (inactive)	> 10 µM (inactive)
COc1cc(/C=C2\CC3C4CC[C@H]5C[C@@H](O)CC[C@]5(C)C4CC[C@]3(C)C2=O)cc(OC)c1OC (stereo not given in full)	22.6 µM (inactive)	9.29 µM (inactive)	36.6 µM (inactive)	11.8 µM (inactive)	5.75 µM (inactive)	7.18 µM (inactive)	14.4 µM (inactive)		15.8 µM (inactive)	26.5 µM (inactive)	16 µM (inactive)	9.59	8.26 µM (inactive)	7.93 µM (inactive)	4.69 µM (inactive)	15.2 µM (inactive)	17.5 µM (inactive)	7.13 µM (inactive)	24.8 µM (inactive)	12.1 µM (inactive)
C[Si](C)(C)c1ccc(-c2sc(-c3ccc([Si](C)(C)C)s3)c3c2C[Si]2(C3)Cc3c(-c4ccc([Si](C)(C)C)s4)sc(-c4ccc([Si](C)(C)C)s4)c3C2)s1	> 100 µM (inactive)	> 100 µM (inactive)	> 100 µM (inactive)	> 100 µM (inactive)	> 100 µM (inactive)	> 100 µM (inactive)	24.9 µM (inactive)	> 100 µM (inactive)	> 100 µM (inactive)	> 100 µM (inactive)	> 100 µM (inactive)	> 100	> 100 µM (inactive)	> 100 µM (inactive)	> 100 µM (inactive)	> 100 µM (inactive)	> 100 µM (inactive)	> 100 µM (inactive)		
C/C(=N\N=C(\N)OB(F)F)c1ccccn1	> 100 µM (inactive)	> 100 µM (inactive)	64.3 µM (inactive)	81.1 µM (inactive)	63.5 µM (inactive)	> 100 µM (inactive)	7.23 µM (inactive)		75 µM (inactive)	12.7 µM (inactive)	40.4 µM (inactive)	93.8	35.7 µM (inactive)	> 100 µM (inactive)	66.8 µM (inactive)	> 100 µM (inactive)	> 100 µM (inactive)	> 100 µM (inactive)	> 100 µM (inactive)	> 100 µM (inactive)
Cn1c(=O)[nH]c2nccnc2c1=O	> 10 µM (inactive)	> 10 µM (inactive)	> 10 µM (inactive)	> 10 µM (inactive)	> 10 µM (inactive)	> 10 µM (inactive)	> 10 µM (inactive)		> 10 µM (inactive)	> 10 µM (inactive)	> 10 µM (inactive)	> 10	> 10 µM (inactive)	> 10 µM (inactive)	> 10 µM (inactive)	> 10 µM (inactive)	> 10 µM (inactive)	> 10 µM (inactive)	> 10 µM (inactive)	> 10 µM (inactive)
COc1cc([C@H]2c3[nH]c4ccccc4c3C[C@H]3COC(=O)N32)cc(OC)c1O	0.0396 µM (active)	0.0193 µM (active)	0.0502 µM (active)	0.163 µM (active)	0.0176 µM (active)	0.0792 µM (active)	0.0324 µM (active)		0.131 µM (active)	2.27 µM (inactive)	0.145 µM (active)	0.0256	0.0326 µM (active)	0.015 µM (active)	0.0189 µM (active)	2.43 µM (inactive)	4.9 µM (inactive)	0.143 µM (active)	29.2 µM (inactive)	0.0509 µM (active)
CC(=O)Nc1sc([N+](=O)[O-])cc1S(=O)(=O)c1ccc(Cl)cc1	3.18 µM (inactive)	1.12 µM (active)	4.69 µM (inactive)	2.36 µM (inactive)	1.92 µM (inactive)	2.4 µM (inactive)	2.21 µM (inactive)		3.78 µM (inactive)	2 µM (inactive)	4.66 µM (inactive)	3.85	4.22 µM (inactive)	1.41 µM (inactive)	2.14 µM (inactive)	3.8 µM (inactive)	3.31 µM (inactive)	2.04 µM (inactive)	3.64 µM (inactive)	3.17 µM (inactive)
Cc1cc(OC2OC(CO)C(O)C(O)C2O)ccc1O (stereo not given)	> 100 µM (inactive)	> 100 µM (inactive)	> 100 µM (inactive)	> 100 µM (inactive)	> 100 µM (inactive)	> 100 µM (inactive)	> 100 µM (inactive)		> 100 µM (inactive)	> 100 µM (inactive)	> 100 µM (inactive)	> 100	> 100 µM (inactive)	> 100 µM (inactive)	> 100 µM (inactive)	> 100 µM (inactive)	> 100 µM (inactive)	> 100 µM (inactive)	> 100 µM (inactive)	> 100 µM (inactive)
CCOC(=O)C1=C(C)CC2C(=O)OC(=O)C2C1(C)C (stereo not given)	> 100 µM (inactive)	> 100 µM (inactive)	> 100 µM (inactive)	> 100 µM (inactive)	> 100 µM (inactive)	> 100 µM (inactive)		> 100 µM (inactive)	> 100 µM (inactive)	> 100 µM (inactive)	> 100 µM (inactive)	> 100	> 100 µM (inactive)	> 100 µM (inactive)	> 100 µM (inactive)	> 100 µM (inactive)	> 100 µM (inactive)	> 100 µM (inactive)		

— ChEMBL document CHEMBL1201862, “PubChem BioAssay data set” (2004)
